Measured values reported in the supplement of paper PMC10307832.

How the values were obtained:
Assay in all cases: relative viability (nuclei count vs DMSO), 5 days (fraction); higher = more cells survive
[1] = compound: CC1CC(=O)N(C2=CN=C(N=C2N1C3CCCC3)NC4=C(C=C(C=C4)C(=O)NC5CCN(CC5)C)OC)C [NPK76-II-72-1] + CCNC(=O)c1noc(-c2cc(C(C)C)c(O)cc2O)c1-c1ccc(CN2CCOCC2)cc1 [Luminespib] (partner 0.01 µM)
How it was run: (§1)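 One day after seeding in 1536-well plates, lung cancer cell lines were dosed by pin tool. Dosing was either single-drug or a fixed anchor-drug dose plus five library-drug doses (not always all listed) in √10 steps. After 5 days, nuclei were stained in one fix-and-stain step and counted on 4× images, and relative viability is the nuclei count of treated wells over that of vehicle wells, given as the median of duplicate plates.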

[2] = compound: CC1CC(=O)N(C2=CN=C(N=C2N1C3CCCC3)NC4=C(C=C(C=C4)C(=O)NC5CCN(CC5)C)OC)C [NPK76-II-72-1] + C[C@@H](Oc1cc(-c2cnn(C3CCNCC3)c2)cnc1N)c1c(Cl)ccc(F)c1Cl [Crizotinib] (partner 1 µM)
How it was run: as §1

[3] = compound: CC1CC(=O)N(C2=CN=C(N=C2N1C3CCCC3)NC4=C(C=C(C=C4)C(=O)NC5CCN(CC5)C)OC)C [NPK76-II-72-1] + Nc1nc2[nH]cc(CCc3ccc(C(=O)N[C@@H](CCC(=O)O)C(=O)O)cc3)c2c(=O)[nH]1 [Pemetrexed] (partner 0.2 µM)
How it was run: as §1

BI-2536 + OSI-027 = compound: CC[C@@H]1C(=O)N(C)c2cnc(Nc3ccc(C(=O)NC4CCN(C)CC4)cc3OC)nc2N1C1CCCC1 [BI-2536] + COc1cccc2cc(-c3nc([C@H]4CC[C@H](C(=O)O)CC4)n4ncnc(N)c34)[nH]c12 [OSI-027] (partner 0.5 µM)
How it was run: as §1

Cell Line | relative viability ([1]; first compound 0.01 µM) | relative viability ([1]; first compound 0.03162 µM) | relative viability ([1]; first compound 0.1 µM) | relative viability ([1]; first compound 0.3162 µM) | relative viability ([1]; first compound 1 µM) | relative viability ([2]; first compound 0.01 µM) | relative viability ([2]; first compound 0.03162 µM) | relative viability ([2]; first compound 0.1 µM) | relative viability ([2]; first compound 1 µM) | relative viability ([3]; first compound 0.01 µM) | relative viability ([3]; first compound 0.03162 µM) | relative viability ([3]; first compound 0.1 µM) | relative viability ([3]; first compound 0.3162 µM) | relative viability ([3]; first compound 1 µM) | relative viability (BI-2536 + OSI-027; first compound 0.01 µM) | relative viability (BI-2536 + OSI-027; first compound 0.03162 µM) | relative viability (BI-2536 + OSI-027; first compound 0.1 µM) | relative viability (BI-2536 + OSI-027; first compound 0.3162 µM) | relative viability (BI-2536 + OSI-027; first compound 1 µM) | relative viability ([2]; first compound 0.3162 µM)
NCI-H650 | 0.72 | 0.843 | 0.718 | 0.615 | 0.891 | 0.799 | 0.865 | 0.629 | 0.825 | 1.01 | 0.972 | 0.879 | 0.922 | 0.994 | 0.551 | 0.471 | 0.351 | 0.19 | 0.144 | 
NCI-H838 | 0.288 | 0.344 | 0.299 | 0.273 | 0.274 | 0.865 | 0.952 | 0.823 | 0.848 | 0.277 | 0.251 | 0.263 | 0.237 | 0.245 | 0.386 | 0.444 | 0.393 | 0.146 | 0.149 | 0.734
COR-L 105 | 0.782 | 0.642 | 0.934 | 0.508 | 0.704 | 0.709 | 0.899 | 0.643 | 0.979 | 1.06 | 1.07 | 0.992 | 1.02 | 1.12 | 0.69 | 0.596 | 0.35 | 0.254 | 0.214 | 0.61
NCI-H2405 | 0.625 | 0.688 | 0.773 | 0.771 | 0.93 | 0.863 | 0.951 | 0.816 | 0.855 | 1.04 | 1.01 | 0.956 | 1.08 | 1.06 | 0.609 | 0.64 | 0.481 | 0.163 | 0.312 | 0.798
NCI-H661 | 0.964 | 0.943 | 0.892 | 0.906 | 0.933 | 0.873 | 0.937 | 0.982 | 0.995 | 0.953 | 0.907 | 0.893 | 0.902 | 0.954 | 0.697 | 0.379 | 0.35 | 0.208 | 0.209 | 
NCI-H1915 | 0.762 | 0.798 | 0.75 | 0.7 | 0.845 | 0.87 | 0.969 | 0.874 | 0.876 | 0.459 | 0.527 | 0.452 | 0.475 | 0.533 | 0.597 | 0.637 | 0.185 | 0.104 | 0.121 | 0.891
CAL-12T | 0.4 | 0.65 | 0.93 | 0.143 | 0.408 | 0.685 | 0.665 | 0.719 | 0.674 | 0.927 | 1.1 | 1.14 | 0.943 | 1.5 | 0.646 | 0.531 | 0.188 | 0.144 | 0.191 | 0.544
LXF-289 | 0.614 | 0.761 | 0.675 | 0.694 | 0.688 | 0.829 | 0.84 | 0.823 | 0.828 | 0.885 | 0.976 | 0.89 | 0.892 | 0.855 | 0.844 | 0.687 | 0.181 | 0.0418 | 0.0509 | 0.801
NCI-H460 | 0.0406 | 0.0404 | 0.0346 | 0.0272 | 0.0329 | 0.945 | 1.03 | 1.06 | 0.898 | 0.061 | 0.0655 | 0.0657 | 0.0656 | 0.0639 | 0.676 | 0.327 | 0.247 | 0.0156 | 0.0121 | 0.876
NCI-H1944 | 0.743 | 0.781 | 0.722 | 0.723 | 0.807 | 0.985 | 1.12 | 1.1 | 1.22 | 0.564 | 0.665 | 0.664 | 0.571 | 0.734 | 0.418 | 0.443 | 0.291 | 0.134 | 0.148 | 1.01
NCI-H2009 | 0.976 | 1.1 | 1.01 | 1.07 | 1.04 | 0.915 | 1.12 | 0.974 | 1.15 | 0.971 | 1.18 | 1 | 1.02 | 1.04 | 0.613 | 0.543 | 0.259 | 0.173 | 0.154 | 1.01
201T | 1.05 | 1.04 | 0.998 | 1.04 | 1.09 | 1.01 | 1.01 | 1.02 | 1.01 | 0.344 | 0.319 | 0.338 | 0.324 | 0.333 | 0.331 | 0.715 | 0.728 | 0.0923 | 0.16 | 1.01
NCI-H23 | 0.237 | 0.209 | 0.228 | 0.228 | 0.201 | 0.544 | 0.563 |  | 0.528 | 0.52 | 0.915 | 0.597 | 0.71 | 0.777 | 0.551 | 0.508 | 0.16 | 0.107 | 0.107 | 0.556
LOU-NH91 | 0.305 | 0.324 | 0.347 | 0.33 | 0.345 | 0.735 | 0.735 | 0.693 | 0.764 | 0.348 | 0.402 | 0.381 | 0.44 | 0.35 | 0.716 | 0.697 | 0.695 | 0.416 | 0.244 | 0.635
NCI-H2085 | 0.442 | 0.437 | 0.391 | 0.381 | 0.437 | 0.864 | 0.962 | 1.03 | 1.01 | 0.855 | 0.946 | 0.972 | 0.915 | 0.974 | 0.833 | 0.602 | 0.282 | 0.153 | 0.272 | 0.778
COR-L23 | 0.655 | 0.789 | 0.746 | 0.711 | 0.761 | 0.73 | 0.715 | 0.738 | 0.647 | 0.207 | 0.19 | 0.195 | 0.193 | 0.211 | 0.864 | 0.484 | 0.216 | 0.107 | 0.139 | 0.619
